Test results published in PubChem BioAssay (NCI).
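Following 48 hours of exposure in 96-well plates, responses at five concentrations were used to interpolate endpoints linearly. GI50: concentration for 50% inhibition of growth. TGI: concentration producing complete growth inhibition.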

Columns and labels:
Assay in all cases: DTP human tumour cell line panel, 48 h
DU-145 prostate = tested on: DU-145 prostate
UACC-62 melanoma = tested on: UACC-62 melanoma
BT-549 breast = tested on: BT-549 breast
NCI-H460 lung = tested on: NCI-H460 lung
SK-MEL-5 melanoma = tested on: SK-MEL-5 melanoma
HCC-2998 colon = tested on: HCC-2998 colon
NCI/ADR-RES ovarian = tested on: NCI/ADR-RES ovarian
T-47D breast = tested on: T-47D breast
SF-539 CNS = tested on: SF-539 CNS
COLO 205 colon = tested on: COLO 205 colon
786-0 renal = tested on: 786-0 renal
NCI-H522 lung = tested on: NCI-H522 lung
EKVX NSCLC = tested on: EKVX NSCLC
SK-MEL-2 melanoma = tested on: SK-MEL-2 melanoma
HS 578T breast = tested on: HS 578T breast
RXF 393 renal = tested on: RXF 393 renal
SNB-75 CNS = tested on: SNB-75 CNS
HCT-15 colon = tested on: HCT-15 colon
SR leukemia = tested on: SR leukemia
UACC-257 melanoma = tested on: UACC-257 melanoma
SN12C renal = tested on: SN12C renal
NCI-H226 lung = tested on: NCI-H226 lung
IGROV1 ovarian = tested on: IGROV1 ovarian
TK-10 renal = tested on: TK-10 renal
A549 NSCLC = tested on: A549 NSCLC
SNB-19 CNS = tested on: SNB-19 CNS
OVCAR-3 ovarian = tested on: OVCAR-3 ovarian
HOP-92 NSCLC = tested on: HOP-92 NSCLC
MDA-MB-231 breast = tested on: MDA-MB-231 breast
OVCAR-8 ovarian = tested on: OVCAR-8 ovarian
MDA-MB-435 = tested on: MDA-MB-435
UO-31 renal = tested on: UO-31 renal
SK-OV-3 ovarian = tested on: SK-OV-3 ovarian
MALME-3M melanoma = tested on: MALME-3M melanoma
HCT-116 colon = tested on: HCT-116 colon
HT29 colon = tested on: HT29 colon
HOP-62 NSCLC = tested on: HOP-62 NSCLC
ACHN renal = tested on: ACHN renal
HL-60(TB) leukemia = tested on: HL-60(TB) leukemia
SK-MEL-28 melanoma = tested on: SK-MEL-28 melanoma
U251 CNS = tested on: U251 CNS
CAKI-1 renal = tested on: CAKI-1 renal
KM12 colon = tested on: KM12 colon
OVCAR-5 ovarian = tested on: OVCAR-5 ovarian
A498 renal = tested on: A498 renal
SW-620 colon = tested on: SW-620 colon
OVCAR-4 ovarian = tested on: OVCAR-4 ovarian
SF-295 CNS = tested on: SF-295 CNS
M14 melanoma = tested on: M14 melanoma
PC-3 prostate = tested on: PC-3 prostate
CCRF-CEM leukemia = tested on: CCRF-CEM leukemia

`COc1ccc(-c2nc(/C=N/Nc3cc(C)nc4ccc(Br)cc34)c(C)o2)cc1` showed a GI50 (DU-145 prostate) of 1750 nM, a TGI (DU-145 prostate) of 3340 nM and a GI50 (UACC-62 melanoma) of 1760 nM. The TGI (UACC-62 melanoma) was 3340 nM, the GI50 (BT-549 breast) was 1670 nM and the TGI (BT-549 breast) was 3110 nM. It also gave a GI50 (NCI-H460 lung) of 1930 nM, a TGI (NCI-H460 lung) of 3730 nM and a GI50 (SK-MEL-5 melanoma) of 1780 nM. The TGI (SK-MEL-5 melanoma) was 3180 nM, the GI50 (HCC-2998 colon) was 1960 nM and the TGI (HCC-2998 colon) was 3650 nM. For the same molecule, the GI50 (NCI/ADR-RES ovarian) was 2030 nM, the TGI (NCI/ADR-RES ovarian) was 4480 nM and the GI50 (T-47D breast) was 1780 nM. For the same molecule, the TGI (T-47D breast) was 3690 nM, the GI50 (SF-539 CNS) was 1830 nM and the TGI (SF-539 CNS) was 3300 nM. The GI50 (COLO 205 colon) was 1670 nM, the TGI (COLO 205 colon) was 3350 nM and the GI50 (786-0 renal) was 1710 nM. For the same molecule, the TGI (786-0 renal) was 3220 nM, the GI50 (NCI-H522 lung) was 1800 nM and the TGI (NCI-H522 lung) was 3670 nM. It also gave a GI50 (EKVX NSCLC) of 1930 nM, a TGI (EKVX NSCLC) of 3440 nM and a GI50 (SK-MEL-2 melanoma) of 1990 nM. For the same molecule, the TGI (SK-MEL-2 melanoma) was 3900 nM, the GI50 (HS 578T breast) was 2020 nM and the TGI (HS 578T breast) was 4100 nM. For the same molecule, the GI50 (RXF 393 renal) was 1440 nM, the TGI (RXF 393 renal) was 2930 nM and the GI50 (SNB-75 CNS) was 1680 nM. The TGI (SNB-75 CNS) was 3280 nM, the GI50 (HCT-15 colon) was 902 nM and the TGI (HCT-15 colon) was 2330 nM. For the same molecule, the GI50 (SR leukemia) was 315 nM, the TGI (SR leukemia) was 1590 nM and the GI50 (UACC-257 melanoma) was 1940 nM. For the same molecule, the TGI (UACC-257 melanoma) was 3570 nM, the GI50 (SN12C renal) was 1930 nM and the TGI (SN12C renal) was 3620 nM. It also gave a GI50 (NCI-H226 lung) of 2090 nM, a TGI (NCI-H226 lung) of 4640 nM and a GI50 (IGROV1 ovarian) of 1720 nM. It also gave a TGI (IGROV1 ovarian) of 3360 nM, a GI50 (TK-10 renal) of 1970 nM and a TGI (TK-10 renal) of 3450 nM. It also gave a GI50 (A549 NSCLC) of 1740 nM, a TGI (A549 NSCLC) of 3330 nM and a GI50 (SNB-19 CNS) of 1950 nM. For the same molecule, the TGI (SNB-19 CNS) was 3730 nM, the GI50 (OVCAR-3 ovarian) was 1840 nM and the TGI (OVCAR-3 ovarian) was 3410 nM. For the same molecule, the GI50 (HOP-92 NSCLC) was 1450 nM, the TGI (HOP-92 NSCLC) was 3060 nM and the GI50 (MDA-MB-231 breast) was 1930 nM. The TGI (MDA-MB-231 breast) was 3720 nM, the GI50 (OVCAR-8 ovarian) was 1790 nM and the TGI (OVCAR-8 ovarian) was 3860 nM. It also gave a GI50 (MDA-MB-435) of 1680 nM, a TGI (MDA-MB-435) of 3100 nM and a GI50 (UO-31 renal) of 1520 nM. It also gave a TGI (UO-31 renal) of 2890 nM, a GI50 (SK-OV-3 ovarian) of 1700 nM and a TGI (SK-OV-3 ovarian) of 3120 nM. It also gave a GI50 (MALME-3M melanoma) of 1980 nM, a TGI (MALME-3M melanoma) of 3670 nM and a GI50 (HCT-116 colon) of 1840 nM. The TGI (HCT-116 colon) was 3360 nM, the GI50 (HT29 colon) was 1620 nM and the TGI (HT29 colon) was 3240 nM. It also gave a GI50 (HOP-62 NSCLC) of 1670 nM, a TGI (HOP-62 NSCLC) of 3250 nM and a GI50 (ACHN renal) of 1730 nM. For the same molecule, the TGI (ACHN renal) was 3110 nM, the GI50 (HL-60(TB) leukemia) was 1490 nM and the TGI (HL-60(TB) leukemia) was 3470 nM. The GI50 (SK-MEL-28 melanoma) was 1790 nM, the TGI (SK-MEL-28 melanoma) was 3230 nM and the GI50 (U251 CNS) was 1860 nM. It also gave a TGI (U251 CNS) of 3390 nM, a GI50 (CAKI-1 renal) of 1620 nM and a TGI (CAKI-1 renal) of 2980 nM. The GI50 (KM12 colon) was 1800 nM, the TGI (KM12 colon) was 3620 nM and the GI50 (OVCAR-5 ovarian) was 1950 nM. The TGI (OVCAR-5 ovarian) was 3410 nM, the GI50 (A498 renal) was 1490 nM and the TGI (A498 renal) was 2890 nM. It also gave a GI50 (SW-620 colon) of 415 nM, a TGI (SW-620 colon) of 1560 nM and a GI50 (OVCAR-4 ovarian) of 1720 nM. For the same molecule, the TGI (OVCAR-4 ovarian) was 3310 nM, the GI50 (SF-295 CNS) was 1900 nM and the TGI (SF-295 CNS) was 3490 nM. For the same molecule, the GI50 (M14 melanoma) was 1780 nM, the TGI (M14 melanoma) was 3390 nM and the GI50 (PC-3 prostate) was 1670 nM. The TGI (PC-3 prostate) was 3200 nM, the GI50 (CCRF-CEM leukemia) was 732 nM and the TGI (CCRF-CEM leukemia) was 3380 nM.
